In patent US9376387B2 (priority 2013, dated 2016) one finds IC50 data, which are given here for 34 molecules.

Test [1] concerns the target EqBuChE (Equus caballus, UniProt P81908). Put plainly: biochemical. The note with it: EqBuChE IC50.
Test [2] addresses T1, hAChE (human erythrocyte membranes as a AChE source) (Homo sapiens, UniProt P22303).
T1 construct: human erythrocyte membranes as a AChE source; from tissue; host or cells: human erythrocyte membranes
The test can be described thus: acetylcholinesterase (AChE) activity, modified Ellman method. In kind it is biochemical. On the technique in general: DTNB colorimetry detects thiols as they appear.

Where [3] appears, read: hAChE IC50, modified Ellman method, acetylthiocholine iodide substrate, pH=7.4.
Setting [4] is: IC50, enzyme not named in the examples, AChE per the Table.

The IC50 is the concentration at which inhibition is half-maximal. A low value points to higher potency.

T1 sequence (P22303 32-617 isoform P22303-2 limits assumed): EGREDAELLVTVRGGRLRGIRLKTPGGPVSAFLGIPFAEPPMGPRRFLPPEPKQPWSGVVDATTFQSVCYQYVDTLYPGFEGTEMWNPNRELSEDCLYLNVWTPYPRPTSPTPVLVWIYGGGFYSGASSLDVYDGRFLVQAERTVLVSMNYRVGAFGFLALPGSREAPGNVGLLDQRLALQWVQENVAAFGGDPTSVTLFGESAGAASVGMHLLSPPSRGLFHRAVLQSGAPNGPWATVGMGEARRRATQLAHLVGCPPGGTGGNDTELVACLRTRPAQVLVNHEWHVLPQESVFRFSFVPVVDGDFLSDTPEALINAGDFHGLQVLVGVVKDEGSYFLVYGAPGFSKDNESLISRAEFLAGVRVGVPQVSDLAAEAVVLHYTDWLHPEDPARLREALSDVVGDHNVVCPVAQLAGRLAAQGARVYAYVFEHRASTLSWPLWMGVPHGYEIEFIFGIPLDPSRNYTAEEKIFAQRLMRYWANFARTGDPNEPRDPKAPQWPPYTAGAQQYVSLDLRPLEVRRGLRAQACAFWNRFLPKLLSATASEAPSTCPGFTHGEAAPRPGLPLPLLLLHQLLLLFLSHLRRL
EqBuChE, sequence (P81908 whole entry): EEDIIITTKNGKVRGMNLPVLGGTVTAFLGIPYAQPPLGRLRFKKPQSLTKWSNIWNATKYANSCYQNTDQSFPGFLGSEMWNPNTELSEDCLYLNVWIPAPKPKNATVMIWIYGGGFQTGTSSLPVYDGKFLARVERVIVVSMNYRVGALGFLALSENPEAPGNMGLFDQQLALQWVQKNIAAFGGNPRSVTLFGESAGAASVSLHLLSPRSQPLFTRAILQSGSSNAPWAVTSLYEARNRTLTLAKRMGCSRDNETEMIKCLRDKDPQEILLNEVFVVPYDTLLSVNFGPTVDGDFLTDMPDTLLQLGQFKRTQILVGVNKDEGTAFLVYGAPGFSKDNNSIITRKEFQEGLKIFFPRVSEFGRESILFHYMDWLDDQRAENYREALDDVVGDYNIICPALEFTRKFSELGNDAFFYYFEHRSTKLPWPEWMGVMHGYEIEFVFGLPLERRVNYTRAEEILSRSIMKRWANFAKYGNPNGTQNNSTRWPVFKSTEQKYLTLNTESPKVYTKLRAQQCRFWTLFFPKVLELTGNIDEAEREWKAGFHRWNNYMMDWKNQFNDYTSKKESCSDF

For `COc1cc2c(cc1OC)C(=O)C(CC1C=CN(Cc3cccc(Cl)c3)C=C1C(C)=O)C2` (stereo not drawn) [Compound 77, 2-[[3-acetyl-1-[(3-chlorophenyl)methyl]-4H-pyridin-4-yl]methyl]-5,6-dimethoxy-indan-1-one], the half-inhibitory concentration (IC50) came to 13500 nM in test [1] and 543 nM in test [2] (setting [3]).

As for `COc1ccc2c(c1)CCC(Cc1cc[n+](Cc3cccc(F)c3)cc1C(C)=O)C2=O` (stereo not drawn) [Compound 128, 2-[[3-acetyl-1-[(3-fluorophenyl)methyl]pyridin-1-ium-4-yl]methyl]-6-methoxy-tetralin-1-one bromide], the IC50 came out at 412 nM in test [1] and 55 nM in test [2] (setting [3]). As for `COc1ccc2c(c1)CCC(Cc1cc[n+](Cc3ccc(Cl)cc3)cc1C(C)=O)C2=O` (stereo not drawn) [Compound 131, 2-[[3-acetyl-1-[(4-chlorophenyl)methyl]pyridin-1-ium-4-yl]methyl]-6-methoxy-tetralin-1-one bromide], the half-maximal inhibitory concentration (IC50) in test [1] is 6090 nM; in test [2] (setting [3]), 568 nM.

As for `COc1cc2c(cc1OC)C(=O)C(Cc1cc[n+](Cc3ccccc3C)cc1Br)C2` (stereo not drawn) [Compound 141, 2-[[3-bromo-1-(o-tolylmethyl)pyridin-1-ium-4-yl]methyl]-5,6-dimethoxy-indan-1-one bromide], the IC50 in test [1] came out at 2290 nM; in test [2] (setting [3]) it was 0.053 nM.

In test [2] (setting [4]), `COc1cc2c(cc1OC)C(=O)C(Cc1cc[n+](Cc3ccccc3)cc1)C2` (stereo not drawn) [Compound 23, 1-Benzyl-4-((5,6-dimethoxy-1-oxo-2,3-dihydro-1H-inden-2-yl)methyl)pyridinium iodide] showed an IC50 of 36.8 nM. With `COc1ccc2c(c1)CCC(Cc1cc[n+](Cc3ccccc3)cc1C(C)=O)C2=O` (stereo not drawn) [Compound 82, 2-[(3-acetyl-1-benzyl-pyridin-1-ium-4-yl)methyl]-6-methoxy-tetralin-1-one chloride], the IC50 amounted to 371 nM in test [1] and 76 nM in test [2] (setting [3]).

In the case of `COc1ccc2c(c1)CCC(Cc1cc[n+](Cc3ccccc3)cc1C(C)=O)C2=O` (stereo not drawn) [Compound 119, 2-[(3-acetyl-1-benzyl-pyridin-1-ium-4-yl)methyl]-6-methoxy-tetralin-1-one bromide], the figures for the IC50 in test [1] and in test [2] (setting [3]) were 412 nM and 71 nM, respectively.

In the case of `CC(=O)c1c[n+](Cc2ccccc2C)ccc1CC1Cc2cc3c(cc2C1=O)OCO3` (stereo not drawn) [Compound 139, 6-[[3-acetyl-1-(o-tolylmethyl)pyridin-1-ium-4-yl]methyl]-5,6-dihydrocyclopenta[f][1,3]benzodioxol-7-one bromide], the IC50 in test [1] was 1620 nM; in test [2] (setting [3]), 60 nM.

Consider `COc1cc2c(cc1OC)C(=O)C(Cc1cc[n+](Cc3ccccc3)cc1F)CC2` (stereo not drawn) [Compound 133, 2[(1-benzyl-3-fluoro-pyridin-1-ium-4-yl)methyl]-6,7-dimethoxy-tetralin-1-one bromide], for which the IC50 is 508 nM in test [1] and 9.1 nM in test [2] (setting [3]). On the same counts, the results for `COc1ccc2c(c1)CCC(Cc1cc[n+](Cc3cccc(C)c3)cc1Br)C2=O` (stereo not drawn) [Compound 118, 2-[[3-bromo-1-(m-tolylmethyl)pyridin-1-ium-4-yl]methyl]-6-methoxy-tetralin-1-one bromide] are 664 nM and 16.5 nM. On to `COc1cc2c(cc1OC)C(=O)/C(=C/c1cc[n+](Cc3ccccc3)cc1C(C)=O)C2` [Compound 149, (2E)-2-[(3-actyl-1-benzyl-pyridin-1-ium-4-yl)methylene]-5,6-dimethoxy-indan-1-one bromide], for which the 50% inhibitory concentration (IC50) in test [2] (setting [3]) stood at 20.1 nM. With `COc1ccc2c(c1)CCC(Cc1cc[n+](Cc3ccccc3Cl)cc1C(C)=O)C2=O` (stereo not drawn) [Compound 126, 2-[[3-acetyl-1-[(2-chlorophenyl)methyl]pyridin-1-ium-4-yl]methyl]-6-methoxy-tetralin-1-one bromide], the results for the IC50 in test [1] and in test [2] (setting [3]) were 256 nM and 29 nM, respectively. For `COc1cc2c(cc1OC)C(=O)C(CC1C=CN(Cc3ccccc3C)C=C1C(C)=O)C2` (stereo not drawn) [Compound 169, 2-[[3-acetyl-1-(o-tolylmethyl)-4H-pyridin-4-yl]methyl]-5,6-dimethoxy-indan-1-one], the concentration for half-maximal inhibition (IC50) in test [2] (setting [3]) was found to be 428 nM.

In test [2] (setting [3]), `CC(=O)c1c[n+](Cc2ccccc2C)ccc1CC1Cc2cc(Cl)ccc2C1=O` (stereo not drawn) [Compound 136, 2-[[3-acetyl-1-(o-tolylmethyl)pyridin-1-ium-4-yl]methyl]-5-chloro-indan-1-one bromide] returned an IC50 of 262 nM.

In test [2] (setting [4]), `COc1cc2c(cc1OC)C(=O)C(CC1C=CN(Cc3ccccc3)C=C1C#N)C2` (stereo not drawn) [Compound 27, 1-Benzyl-4-(5,6-dimethoxy-1-oxo-2,3-dihydro-1H-inden-2-yl)methyl-1,4-dihydropyridine-3-carbonitrile] registered an IC50 of 175 nM. Regarding `COc1cc2c(cc1OC)C(=O)C(Cc1cc[n+](Cc3ccccc3)cc1C#N)C2` (stereo not drawn) [Compound 26, 1-Benzyl-3-cyano-4-(5,6-dimethoxy-1-oxo-2,3-dihydro-1H-inden-2-yl)methylpyridinium iodide], the half-inhibitory concentration (IC50) in test [2] (setting [4]) turned out to be 11.2 nM; in test [2] (setting [3]), 11.3 nM. In test [1], `COc1ccc(C(=O)N(CCC2C=CN(Cc3ccccc3)C=C2C(C)=O)c2ccccc2)cc1OC` (stereo not drawn) [Compound 32, N-[2-(3-acetyl-1-benzyl-4H-pyridin-4-yl)ethyl]-3,4-dimethoxy-N-phenyl-benzamide] gave a half-maximal inhibitory concentration (IC50) of 6210 nM. In the case of `COc1cc2c(cc1OC)C(=O)C(CC1C=CN(Cc3ccccc3)C=C1C(C)=O)C2` (stereo not drawn) [Compound 34, 1-Benzyl-4-(5,6-dimethoxy-1-oxo-2,3-dihydro-1H-inden-2-yl)methyl-1,4-dihydropyridine-3-acetyl], in test [2] (setting [4]), the IC50 was determined as 528 nM. Molecule `COc1ccc2c(c1)CCC(CC1C=CN(Cc3cccc(C)c3)C=C1C(C)=O)C2=O` (stereo not drawn) [Compound 61, 2-[[3-acetyl-1-(m-tolylmethyl)-4H-pyridin-4-yl]methyl]-6-methoxy-tetralin-1-one] displayed an IC50 in test [1] of 4020 nM. Same read-out and setting: next, `COc1ccc2c(c1)CCC(CC1C=CN(Cc3cccc(F)c3)C=C1C(C)=O)C2=O` (stereo not drawn) [Compound 156, 2-[[3-acetyl-1-[(3-fluorophenyl)methyl]-4H-pyridin-4-yl]methyl]-6-methoxy-tetralin-1-one]: 4400 nM; `COc1ccc2c(c1)CC(CC1C=CN(Cc3ccccc3C)C=C1C(C)=O)C2=O` (stereo not drawn) [Compound 164, 2-[[3-acetyl-1-(o-tolylmethyl)-4H-pyridin-4-yl]methyl]-5-methoxy-indan-1-one]: 5440 nM. Take `COc1ccc2c(c1)CCC(CC1C=CN(Cc3ccccc3F)C=C1C(C)=O)C2=O` (stereo not drawn) [Compound 55, 2-[[3-acetyl-1-[(2-fluorophenyl)methyl]-4H-pyridin-4-yl]methyl]-6-methoxy-tetralin-1-one]: the half-maximal inhibitory concentration (IC50) in test [1] was determined as 6010 nM. In test [2] (setting [3]), `COc1cc2c(cc1OC)C(=O)C(Cc1cc[n+](Cc3ccccc3)cc1C(C)=O)CC2` (stereo not drawn) [Compound 132, 2-[(3-actyl-1-benzyl-pyridin-1-ium-4-yl)methyl]-6,7-dimethoxy-tetralin-1-one bromide] returned an IC50 of 24.2 nM. Consider `COc1ccc2c(c1)CCC(CC1C=CN(Cc3ccccc3C)C=C1C(C)=O)C2=O` (stereo not drawn) [Compound 59, 2-[[3-acetyl-1-(o-tolylmethyl)-4H-pyridin-4-yl]methyl]-6-methoxy-tetralin-1-one], for which, in test [1], the IC50 came out at 8270 nM.

The molecule `COc1ccc2c(c1)CCC(CC1C=CN(Cc3ccccc3Cl)C=C1C(C)=O)C2=O` (stereo not drawn) [Compound 157, 2-[[3-acetyl-1-[(2-chlorphenyl)methyl]-4H-pyridin-4-yl]methyl]-6-methoxy-tetralin-1-one] registered an IC50 in test [1] of 5780 nM. For `COc1ccc2c(c1)CCC(CC1C=CN(Cc3ccccc3C)C=C1C(C)=O)C2=O` (single isomer, unassigned) [Compound 160-B, 2-[[3-acetyl-1-(o-tolylmethyl)-4H-pyridin-4-yl]methyl]-6-methoxy-tetralin-1-one], 5640 nM corresponded to half-maximal inhibition in test [1] (IC50). Molecule `COc1ccc2c(c1)CCC(CC1C=CN(Cc3ccccc3C)C=C1C(C)=O)C2=O` (racemic) [Compound 160, 2-[[3-acetyl-1-(o-tolylmethyl)-4H-pyridin-4-yl]methyl]-6-methoxy-tetralin-1-one] yielded a half-maximal inhibitory concentration (IC50) in test [1] of 8270 nM. On the same count and under the same terms, next, `COc1ccc2c(c1)CCC(CC1C=CN(Cc3ccc(F)cc3)C=C1C(C)=O)C2=O` (stereo not drawn) [Compound 155, 2-[[3-acetyl-1-[(4-fluorophenyl)methyl]-4H-pyridin-4-yl]methyl]-6-methoxy-tetralin-1-one]: 2270 nM; `CC(=O)C1=CN(Cc2ccccc2C)C=CC1CC1Cc2cc(C)ccc2C1=O` (stereo not drawn) [Compound 163, 2-[[3-acetyl-1-(o-tolylmethyl)-4H-pyridin-4-yl]methyl]-5-methyl-indan-1-one]: 4820 nM.

`COc1ccc2c(c1)CCC(CC1C=CN(Cc3ccccc3C(F)(F)F)C=C1C(C)=O)C2=O` (stereo not drawn) [Compound 67, 2-[[3-acetyl-1-[[2-(trifluoromethyl)phenyl]methyl]-4H-pyridin-4-yl]methyl]-6-methoxy-tetralin-1-one]: the IC50 in test [1] came to 3050 nM. `COc1cc2c(cc1OC)C(=O)C(Cc1cc[n+](Cc3ccccc3)cc1C(C)=O)C2` (stereo not drawn) [Compound 33, 1-Benzyl-3-actyl-4-(5,6-dimethoxy-1-oxo-2,3-dihydro-1H-inden-2-yl)methyl pyridinium bromide] yielded a concentration for half-maximal inhibition (IC50) in test [2] (setting [4]) of 18 nM. In the case of `CC(=O)C1=CN(Cc2ccccc2C)C=CC1CC1Cc2cc3c(cc2C1=O)OCO3` (stereo not drawn) [Compound 165, 6-[[3-acetyl-1-(o-tolylmethyl)-4H-pyridin-4-yl]methyl]-5,6-dihydrocyclopenta[f][1,3]benzodioxol-7-one], in test [1], the half-inhibitory concentration (IC50) was 4610 nM. For the molecule `COc1ccc2c(c1)CCC(CC1C=CN(Cc3ccccc3C)C=C1C(C)=O)C2=O` (single isomer, unassigned) [Compound 160-C, 2-[[3-acetyl-1-(o-tolylmethyl)-4H-pyridin-4-yl]methyl]-6-methoxy-tetralin-1-one], the IC50 in test [1] stood at 4700 nM. In the case of `COc1ccc(C(=O)N(CCCC2C=CN(Cc3ccccc3)C=C2C(C)=O)c2ccccc2)cc1OC` (stereo not drawn) [Compound 36, N-[3-(3-acetyl-1-benzyl-4H-pyridin-4-yl)propyl]-3,4-dimethoxy-N-phenyl-benzamide], it took 4600 nM to reach half-maximal inhibition in test [1] (IC50).
